Reference: US4780466A, “Arylpiperazinylalkoxy derivatives of cyclic imides” (Hoechst-Roussel Pharmaceuticals, Inc., priority 1988, dated 1988)
Where a name gives a salt, the structure may show the parent alone.

Columns and labels:
Type in all cases: in vivo
[1] = test system: mice; assay: 2-phenyl-1,4-benzoquinone-induced writhing test in mice (analgesic activity); settings: Mus musculus, sc, read-out: Phenylquinone Writhing ED50
Description: Compounds of the present invention are also useful as analgesic agents due to their ability to alleviate pain in mammals. […] Exptl. Biol. Med., 95,729 (1957)]

[2] = test system: rats; assay: Geller-conflict paradigm with rats (anxiolytic activity); settings: 10 mg/kg i.p.; pretreat interval usually one-half hour; male rats
Description: Compounds I of the present invention are also useful as anxiolytic agents. […] See Geller, Irving and Seifter, Psychopharmacologia Col. 1, 482-492 (1962). Male rats are used as test subjects. They are housed individually and food and water are available ad libitum until they are 300 to 400 grams prior to the start of training. Subsequently they are food deprived until their body weight is reduced to approximately 80% of original and it is maintained at this level by a restricted food diet.
The programming and test equipment consists of solid state devices, shockers and cages within sound-attentuated environmental enclosures. The data is recorded on both solid state print-out counters and cumulative recorders. The cages are equipped with a house-light, a single-lever, cue-lights, a liquid dipper, a speaker and a grid-floor connected to a shocker. Sweetened condensed milk delivered by the liquid-dipper serve as the positive reinforcement for all subjects.
The subjects are trained to lever-press for the milk reward in two distinct response-reward sections. In the anxiety or "conflict" segment, signaled by onset of both tone and cue-lights, a dipper of milk is delivered in response to each lever-press (CRF schedule of reinforcement). However lever presses during this period are also accompanied by a 40 m sec pulse of aversive footshock through the grid-floor. […]

[3] = test system: mice; assay: Climbing mice assay (antipsychotic activity, apomorphine-induced climbing); settings: Mus musculus; ip, 30 minutes prior to apomorphine 1.5 mg/kg s.c.; CK-1 male mice
Procedure: Antipsychotic activity is determined in the climbing mice assay by methods similar to those described by P. Protais, et al., Psychopharmacol., 50, 1 (1976) and B. Costall, Eur. J. Pharmacol., 50, 39, (1978).
The subject CK-1 male mice (23-27 grams) are group-housed under standard laboratory conditions. The mice are individually placed in wire mesh stick cages (4'×4" by 10") and are allowed one hour for adaptation and exploration of the new environment. Then apomorphine is injected subcutaneously at 1.5 mg/kg, a dose causing climbing in all subjects for 30 minutes. Compounds to be tested for antipsychotic activity are injected intraperitoneally 30 minutes prior to the apomorphine challenge at a screening dose of 10 mg/kg.
For evaluation of climbing, 3 readings are taken at 10, 20 and 30 minutes after apomorphine administration according to the following scale:
4 paws on bottom (no climbing)
2 paws on the wall (rearing)
4 paws on the wall (full climb)
Mice consistently climbing before the injection of apomorphine are discarded.
With full-developed apomorphine climbing, the animals are hanging onto the cage walls, rather motionless, over longer periods of time. By constrast, climbs due to mere motor stimulation usually last only a few seconds.
The climbing scores are individually totaled (maximum score: 6 per mouse over 3 readings) and the total score of the control group (vehicle intraperitoneally; apomorphine subcutaneously) is set to 100%. ED50 values with 95% confidence limits, calculated by a linear regression analysis of some of the compounds of this invention are presented in Table 1.

SMILES | ED50 [1] [mg/kg] | Geller CRF ratio [2] | ED50 [3] [mg/kg]
COc1ccccc1N1CCN(CCCON2C(=O)CC3(CCCC3)CC2=O)CC1 [8-[3-[4-(2-Methoxyphenyl)-1-piperazinyl-propyloxy]-8-azaspiro[4.5]decan-7,9-dione hydrochloride hemihydrate] | 1.1 |  | 
CNC1=Nc2ccc(Cl)cc2C(c2ccccc2)=[N+]([O-])C1 [Chlorodiazepoxide, reference compound] |  | 3.6 | 
CN1CCN(C2=Nc3cc(Cl)ccc3Nc3ccccc32)CC1 [Clazapine, reference compound] |  |  | 8.1
Cc1cccc(N2CCN(CCCON3C(=O)CC4(CCCC4)CC3=O)CC2)c1 [Example 5, 8-[3-[4-(3-Methylphenyl)-1-piperazinyl]propyloxy]-8-azaspiro[4.5]decan-7,9-dione hydrochloride hemihydrate] |  | 7.5 | 
COc1cccc(N2CCN(CCCON3C(=O)CC4(CCCC4)CC3=O)CC2)c1 [Example 8, 8-[3-[4-(3-Methoxyphenyl)-1-piperazinyl]propyloxy]-8-azaspiro-[4.5]decan-7,9-dione hydrochloride hemihydrate] |  |  | 10.9
O=C1CC2(CCCC2)CC(=O)N1OCCCN1CCN(c2nsc3ccccc23)CC1 [Example 11, 8-[3-[4-(1,2-Benzisothiazol-3-yl)-1-piperazinyl]propyloxy]-8-azaspiro[4.5]decan-7,9-dione hydrochloride hemihydrate] | 0.9 |  | 5.7
CC(C)=CCN1CCC2(C)c3cc(O)ccc3CC1C2C (centres unmarked) [Pentazocine, reference compound] | 1.3 |  | 
